{"source": "patent US20230263825A1", "about": "“ANTI-CANCER ACTIVITY OF PERBORATE SALTS” (priority 2020, published 2023)", "key": {"[1]": {"tested_on": "DMS114 cells (small cell lung cancer cells)", "assay": "MTS cytotoxicity assay", "type": "cell-based", "conditions": "DMS114", "experimental": "(§1) An MTS reduction (MTS (3-(4,5-dimethylthiazol-2-yl)-5-(3-carboxymethoxyphenyl)-2-(4-sulfophenyl)-2H-tetrazolium) assay) was conducted to analyze the cytotoxic effect of sodium perborate tetrahydrate on lung, chordoma and pancreatic cells and normal cells. In this method, cell viability is determined via the activity of mitochondrial dehydrogenase enzyme, which reduces the tetrazolium dye MTS to its […] formazan (absorbance maximum of 490 nm in PBS).\n(§2) Cells were counted and seeded in 96-well culture dishes. […] The positive control comprised 20% Dimethyl Sulfoxide and the negative control comprised complete growth media. Seeding densities were as follows: DMS114: 20.000 cells/well; MRC5: 5.000 cells/well; CH22: 2.000 cells/well; JHC7, UM-Chor1, MUG-Chor1, UCH1 and NPH: 5.000 cells/well; PSN1: 10.000 cells/well; BxPC3 and ASPC: 7.500 cells/well. The effect of sodium perborate tetrahydrate on cell viability was measured as follows. The cell culture medium was discarded and 100 μl of MTS solution (10% glucose solution and 1% MTS-PMS solution in PBS) was added into each well. After 1 hour incubation in a humidified incubator, an absorbance reading was taken to determine mitochondrial dehydrogenase activity and cell survival was calculated relative to the negative control."}, "[2]": {"tested_on": "PSN-1 (a pancreatic adenocarcinoma cell line)", "assay": "MTS cytotoxicity assay, single agents and combinations", "type": "cell-based", "conditions": "Homo sapiens, PSN1, PSN-1, chemotherapeutic agent alone; read-out: EC50 concentration", "experimental": "as §1, §2"}}}
{"compound": "sodium pentaborate pentahydrate [reference compound]", "values": [{"measurement": "EC50 (dose that kills 50% of cells)", "setting": "[1]", "result": "1,250 μg/mL"}]}
{"compound": "O=c1[nH]cc(F)c(=O)[nH]1", "note": "[5-Fluorouracil, reference compound]", "values": [{"measurement": "EC50", "setting": "[2]", "result": 13, "unit": "µM"}]}
{"compound": "OB(O)O", "note": "[boric acid, reference compound]", "values": [{"measurement": "EC50", "setting": "[1]; Homo sapiens, DMS-114, read-out: EC50 (dose that kills 50% of cells)", "result": 1000, "unit": "µg/mL"}]}
